What was measured:
Set-up in all cases: species or system human
[1] = Degree of kokumi of carrageenan solution (Example 187)
Procedure: Carrageenan was added to pure water to prepare several carrageenan solutions with a concentration gradient as standard solutions for judging the degree of kokumi of the carrageenan solutions.
A carrageenan solution was prepared at a concentration of 400 ppm. Different amounts of MRP, S-MRP or TS-MRP were added to the solution such that the concentration of MRP, S-MRP or TS-MRP in the solution was 50 ppm, 75 ppm, 100 ppm, 125 ppm or 150 ppm.
(§1) Method: For evaluation of the degree of kokumi, the sample solutions (described above) were tested by a panel of four people. The panel was asked to taste the sample solutions and compare them to standard solutions (described above) to judge which standard solution the degree of kokumi of sample solution is similar to. 1 trained taster tasted independently the samples first. The tester was allowed to re-taste, and then made judgment. Afterwards, another 3 tasters tasted and the judgments were discussed openly to find a suitable description in the case that more than 1 taster disagreed with the result, the tasting was repeated.

[2] = Degree of kokumi of gellan gum solution (Example 188)
Procedure: Gellan gum was added to pure water to prepare several gellan gum solutions with a concentration gradient as standard solutions for judging the degree of kokumi of the gellan gum solutions.
A gellan gum solution was prepared at a concentration of 400 ppm. Different amounts of MRP, S-MRP or TS-MRP were added to the solution such that the concentration of MRP, S-MRP or TS-MRP in the solution was 50 ppm, 75 ppm, 100 ppm, 125 ppm or 150 ppm.
as §1, with “judge to” for “judge”, “similar” for “similar to.”, “description. In” for “description in”

[3] = Degree of kokumi of Tamarind gum solution (Example 189)
Procedure: Tamarind gum was added to pure water to prepare several Tamarind gum solutions with a concentration gradient as standard solutions for judging the degree of kokumi of the Tamarind gum solutions.
A Tamarind gum solution was prepared at a concentration of 400 ppm. Different amounts of MRP, S-MRP or TS-MRP were added to the solution such that the concentration of MRP, S-MRP or TS-MRP in the solution was 50 ppm, 75 ppm, 100 ppm, 125 ppm or 150 ppm.
as §1, with “judge to” for “judge”, “similar” for “similar to.”, “description. In” for “description in”

carrageenan
concentration above which taste like starch paste is clearly felt [1]: exceeds 1000 ppm

gellan gum
concentration above which taste like starch paste is clearly felt [2]: exceeds 1400 ppm

Tamarind gum
concentration above which taste like starch paste is clearly felt [3]: exceeds 1400 ppm

Reference: patent US11985994B2, “Sweetener and flavor compositions, methods of making and methods of use thereof” (EPC Natural Products Co., Ltd., priority 2018, dated 2024)
